Test results as given in ChEMBL document CHEMBL1671854, “ramR mutations involved in efflux-mediated multidrug resistance in Salmonella enterica serovar Typhimurium” (2008).
≈ marks a conversion by molar mass, not a printed value.

Experiments:
Type in all cases: functional, Salmonella enterica subsp. enterica serovar Typhimurium
Salmonella typhimurium [1] = assay: Antimicrobial activity against Salmonella enterica serovar Typhimurium BN18/71 harboring GyrA G81C, acrR mutant genes by agar doubling dilution method
Salmonella typhimurium [2] = assay: Antimicrobial activity against multidrug-resistant Salmonella enterica serovar Typhimurium 102SA00 harboring plasmid encoded RamR gene, GyrA S83A and D87N, GyrB S464F and ParC S80I mutant genes by agar doubling dilution method
Salmonella typhimurium [3] = assay: Antimicrobial activity against Salmonella enterica serovar Typhimurium BN18 by agar doubling dilution method
Salmonella typhimurium [4] = assay: Antimicrobial activity against multidrug-resistant Salmonella enterica serovar Typhimurium 543SA98 harboring plasmid encoded RamR gene, GyrA S83Y mutant gene by agar doubling dilution method
Salmonella typhimurium [5] = assay: Antimicrobial activity against multidrug-resistant Salmonella enterica serovar Typhimurium BN9181 harboring plasmid encoded RamR gene by agar doubling dilution method
Salmonella typhimurium [6] = assay: Antimicrobial activity against ramA::kan-deficient Salmonella enterica serovar Typhimurium S/921495 by agar doubling dilution method
Salmonella typhimurium [7] = assay: Antimicrobial activity against Salmonella enterica serovar Typhimurium S/921495 by agar doubling dilution method
Salmonella typhimurium [8] = assay: Antimicrobial activity against ramA::kan-deficient Salmonella enterica serovar Typhimurium BN9181 by agar doubling dilution method
Salmonella typhimurium [9] = assay: Antimicrobial activity against Salmonella enterica serovar Typhimurium BN18/41 harboring plasmid encoded RamR gene, GyrA G81C,acrR mutant genes by agar doubling dilution method
Salmonella typhimurium [10] = assay: Antimicrobial activity against multidrug-resistant Salmonella enterica serovar Typhimurium BN9945 harboring plasmid encoded RamR gene by agar doubling dilution method
Salmonella typhimurium [11] = assay: Antimicrobial activity against multidrug-resistant Salmonella enterica serovar Typhimurium 902SA92 harboring plasmid encoded RamR gene, GyrA S83A and D87N, GyrB S464F and ParC S80I mutant genes by agar doubling dilution method
Salmonella typhimurium [12] = assay: Antimicrobial activity against Salmonella enterica serovar Typhimurium S/921495 harboring plasmid encoded RamR gene by agar doubling dilution method
Salmonella typhimurium [13] = assay: Antimicrobial activity against multidrug-resistant Salmonella enterica serovar Typhimurium 102SA00 harboring GyrA S83A and D87N, GyrB S464F and ParC S80I mutant genes by agar doubling dilution method
Salmonella typhimurium [14] = assay: Antimicrobial activity against Salmonella enterica serovar Typhimurium BN18/71 harboring plasmid encoded RamR gene, GyrA G81C,acrR mutant genes by agar doubling dilution method
Salmonella typhimurium [15] = assay: Antimicrobial activity against ramR-deficient Salmonella enterica serovar Typhimurium S/921495 harboring plasmid encoded RamR gene by agar doubling dilution method
Salmonella typhimurium [16] = assay: Antimicrobial activity against marR::kan-deficient Salmonella enterica serovar Typhimurium S/921495 by agar doubling dilution method
Salmonella typhimurium [17] = assay: Antimicrobial activity against multidrug-resistant Salmonella enterica serovar Typhimurium BN10055 harboring GyrA S83Y mutant gene by agar doubling dilution method
Salmonella typhimurium [18] = assay: Antimicrobial activity against multidrug-resistant Salmonella enterica serovar Typhimurium BN9181 by agar doubling dilution method
Salmonella typhimurium [19] = assay: Antimicrobial activity against marR-deficient Salmonella enterica serovar Typhimurium S/921495 by agar doubling dilution method
Salmonella typhimurium [20] = assay: Antimicrobial activity against Salmonella enterica serovar Typhimurium BN18/21 harboring plasmid encoded RamR gene by agar doubling dilution method
Salmonella typhimurium [21] = assay: Antimicrobial activity against Salmonella enterica serovar Typhimurium BN18/41 harboring GyrA G81C,acrR mutant genes by agar doubling dilution method
Salmonella typhimurium [22] = assay: Antimicrobial activity against ramR::kan-deficient Salmonella enterica serovar Typhimurium S/921495 by agar doubling dilution method
Salmonella typhimurium [23] = assay: Antimicrobial activity against Salmonella enterica serovar Typhimurium BN18 harboring plasmid encoded RamR gene by agar doubling dilution method
Salmonella typhimurium [24] = assay: Antimicrobial activity against ramR-deficient Salmonella enterica serovar Typhimurium S/921495 by agar doubling dilution method
Salmonella typhimurium [25] = assay: Antimicrobial activity against multidrug-resistant Salmonella enterica serovar Typhimurium 543SA98 harboring GyrA […] mutant gene by agar doubling dilution method
Salmonella typhimurium [26] = assay: Antimicrobial activity against multidrug-resistant Salmonella enterica serovar Typhimurium BN9945 by agar doubling dilution method
Salmonella typhimurium [27] = assay: Antimicrobial activity against ramA::kan-deficient Salmonella enterica serovar Typhimurium 102SA00 harboring GyrA S83A and D87N, GyrB S464F and ParC S80I mutant genes by agar doubling dilution method
Salmonella typhimurium [28] = assay: Antimicrobial activity against Salmonella enterica serovar Typhimurium BN18/21 by agar doubling dilution method
Salmonella typhimurium [29] = assay: Antimicrobial activity against ramA::kan-deficient Salmonella enterica serovar Typhimurium BN18/71 harboring plasmid encoded RamR gene, GyrA G81C,acrR mutant genes by agar doubling dilution method
Salmonella typhimurium [30] = assay: Antimicrobial activity against ramA::kan-deficient Salmonella enterica serovar Typhimurium BN9945 by agar doubling dilution method
Salmonella typhimurium [31] = assay: Antimicrobial activity against ramA::kan-deficient Salmonella enterica serovar Typhimurium 902SA92 harboring GyrA S83A and D87N, GyrB S464F and ParC S80I mutant genes by agar doubling dilution method
Salmonella typhimurium [32] = assay: Antimicrobial activity against multidrug-resistant Salmonella enterica serovar Typhimurium BN10055 harboring plasmid encoded RamR gene, GyrA S83Y mutant gene by agar doubling dilution method
Salmonella typhimurium [33] = assay: Antimicrobial activity against ramA::kan-deficient Salmonella enterica serovar Typhimurium 543SA98 harboring GyrA S83Y mutant gene by agar doubling dilution method
Salmonella typhimurium [34] = assay: Antimicrobial activity against ramA::kan-deficient Salmonella enterica serovar Typhimurium BN18/21 by agar doubling dilution method
Salmonella typhimurium [35] = assay: Antimicrobial activity against ramA::kan-deficient Salmonella enterica serovar Typhimurium BN10055 harboring GyrA S83Y mutant gene by agar doubling dilution method
Salmonella typhimurium [36] = assay: Antimicrobial activity against ramA::kan-deficient Salmonella enterica serovar Typhimurium BN18/41 harboring plasmid encoded RamR gene, GyrA G81C,acrR mutant genes by agar doubling dilution method
Salmonella typhimurium [37] = assay: Antimicrobial activity against multidrug-resistant Salmonella enterica serovar Typhimurium 902SA92 harboring GyrA S83A and D87N, GyrB S464F and ParC S80I mutant genes by agar doubling dilution method
Salmonella typhimurium [38] = assay: Antimicrobial activity against marA::kan-deficient Salmonella enterica serovar Typhimurium S/921495 by agar doubling dilution method
Salmonella typhimurium [39] = assay: Antimicrobial activity against ramA::kan-deficient Salmonella enterica serovar Typhimurium BN18 by agar doubling dilution method
Salmonella typhimurium [40] = assay: Antimicrobial activity against soxR::kan-deficient Salmonella enterica serovar Typhimurium S/921495 by agar doubling dilution method
Salmonella typhimurium [41] = assay: Antimicrobial activity against soxS::kan-deficient Salmonella enterica serovar Typhimurium S/921495 by agar doubling dilution method

O=C(N[C@H](CO)[C@H](O)c1ccc([N+](=O)[O-])cc1)C(Cl)Cl [CHLORAMPHENICOL]
MIC (Salmonella typhimurium [1]): 64 mg/L (≈ 198 µM)
MIC (Salmonella typhimurium [2]): 256 mg/L (≈ 792 µM)
MIC (Salmonella typhimurium [3]): 4 mg/L (≈ 12.4 µM)
MIC (Salmonella typhimurium [4]): 128 mg/L (≈ 396 µM)
MIC (Salmonella typhimurium [5]): 128 mg/L (≈ 396 µM)
MIC (Salmonella typhimurium [6]): 4 mg/L (≈ 12.4 µM)
MIC (Salmonella typhimurium [7]): 4 mg/L (≈ 12.4 µM)
MIC (Salmonella typhimurium [8]): 128 mg/L (≈ 396 µM)
MIC (Salmonella typhimurium [9]): 16 mg/L (≈ 49.5 µM)
MIC (Salmonella typhimurium [10]): 128 mg/L (≈ 396 µM)
MIC (Salmonella typhimurium [11]): 256 mg/L (≈ 792 µM)
MIC (Salmonella typhimurium [12]): 4 mg/L (≈ 12.4 µM)
MIC (Salmonella typhimurium [13]): 512 mg/L (≈ 1580 µM)
MIC (Salmonella typhimurium [14]): 16 mg/L (≈ 49.5 µM)
MIC (Salmonella typhimurium [15]): 4 mg/L (≈ 12.4 µM)
MIC (Salmonella typhimurium [16]): 4 mg/L (≈ 12.4 µM)
MIC (Salmonella typhimurium [17]): 1020 mg/L (≈ 3170 µM)
MIC (Salmonella typhimurium [18]): 128 mg/L (≈ 396 µM)
MIC (Salmonella typhimurium [19]): 4 mg/L (≈ 12.4 µM)
MIC (Salmonella typhimurium [20]): 4 mg/L (≈ 12.4 µM)
MIC (Salmonella typhimurium [21]): 32 mg/L (≈ 99 µM)
MIC (Salmonella typhimurium [22]): 16 mg/L (≈ 49.5 µM)
MIC (Salmonella typhimurium [23]): 4 mg/L (≈ 12.4 µM)
MIC (Salmonella typhimurium [24]): 16 mg/L (≈ 49.5 µM)
MIC (Salmonella typhimurium [25]): 512 mg/L (≈ 1580 µM)
MIC (Salmonella typhimurium [26]): 512 mg/L (≈ 1580 µM)
MIC (Salmonella typhimurium [27]): 256 mg/L (≈ 792 µM)
MIC (Salmonella typhimurium [28]): 16 mg/L (≈ 49.5 µM)
MIC (Salmonella typhimurium [29]): 16 mg/L (≈ 49.5 µM)
MIC (Salmonella typhimurium [30]): 128 mg/L (≈ 396 µM)
MIC (Salmonella typhimurium [31]): 256 mg/L (≈ 792 µM)
MIC (Salmonella typhimurium [32]): 1020 mg/L (≈ 3170 µM)
MIC (Salmonella typhimurium [33]): 128 mg/L (≈ 396 µM)
MIC (Salmonella typhimurium [34]): 4 mg/L (≈ 12.4 µM)
MIC (Salmonella typhimurium [35]): 128 mg/L (≈ 396 µM)
MIC (Salmonella typhimurium [36]): 16 mg/L (≈ 49.5 µM)
MIC (Salmonella typhimurium [37]): 1020 mg/L (≈ 3170 µM)
MIC (Salmonella typhimurium [38]): 4 mg/L (≈ 12.4 µM)
MIC (Salmonella typhimurium [39]): 4 mg/L (≈ 12.4 µM)
MIC (Salmonella typhimurium [40]): 4 mg/L (≈ 12.4 µM)
MIC (Salmonella typhimurium [41]): 4 mg/L (≈ 12.4 µM)
